Measurements: the CheMixHub viscosity set
Where “and” joins values, the source holds several entries; their conditions need not be identical. Identical values can stand only once. ± gives the uncertainty stated by the source.

Legend:
[1] = xn = mol fraction of the nth substance listed

CC(=O)c1ccc(C)cc1 + C=CC#N
[1], 308.15 K, 101 kPa
Settings	viscosity [mPa·s]
x1 = 0.053	0.365 ± 0.004
x1 = 0.1107	0.4026 ± 0.0043
x1 = 0.1749	0.4516 ± 0.0047
x1 = 0.2487	0.511 ± 0.0052
x1 = 0.3327	0.5909 ± 0.0059
x1 = 0.4237	0.684 ± 0.0067
x1 = 0.536	0.8136 ± 0.0078
x1 = 0.6679	0.9939 ± 0.0094
x1 = 0.8181	1.23 ± 0.011

CCCCCCCCCCCC[N+](C)(C)Cc1ccccc1.O=S(=O)([N-]S(=O)(=O)C(F)(F)F)C(F)(F)F
101 kPa
Settings	viscosity [mPa·s]
298.15 K	1425 ± 200
303.15 K	974.3 ± 130
308.15 K	682.7 ± 88
313.15 K	484.8 ± 59
318.15 K	351.1 ± 41
323.15 K	260.6 ± 29

CCCCOCCOCCOCCO + ClC(Cl)=C(Cl)Cl
[1], 298.15 K, 101.33 kPa
Settings	viscosity [mPa·s]
x2 = 0.0067	0.864 ± 0.009
x2 = 0.0173	0.895 ± 0.009
x2 = 0.0345	0.95 ± 0.009
x2 = 0.0476	0.995 ± 0.01
x2 = 0.06	1.04 ± 0.01
x2 = 0.0815	1.124 ± 0.011
x2 = 0.1063	1.227 ± 0.012
x2 = 0.1471	1.408 ± 0.014
x2 = 0.184	1.601 ± 0.016
x2 = 0.2264	1.828 ± 0.018
x2 = 0.2617	2.046 ± 0.02
x2 = 0.3067	2.351 ± 0.023
x2 = 0.348	2.66 ± 0.027
x2 = 0.377	2.889 ± 0.029
x2 = 0.415	3.192 ± 0.033
x2 = 0.4588	3.55 ± 0.037
x2 = 0.491	3.816 ± 0.04
x2 = 0.5348	4.198 ± 0.044
x2 = 0.576	4.576 ± 0.049
x2 = 0.6201	4.978 ± 0.054
x2 = 0.6577	5.357 ± 0.058
x2 = 0.7089	5.881 ± 0.064
x2 = 0.7558	6.354 ± 0.07
x2 = 0.8037	6.872 ± 0.077
x2 = 0.8566	7.45 ± 0.085
x2 = 0.9013	7.964 ± 0.091
x2 = 0.9283	8.26 ± 0.096
x2 = 0.9521	8.528 ± 0.099
x2 = 0.9738	8.793 ± 0.1

CCCCC(CC)COP(=O)(O)OCC(CC)CCCC (centres undefined) + CCC(=O)O
[1], 303.15 K, 101 kPa
Settings	viscosity [mPa·s]
x1 = 0.0668	1.394 ± 0.067
x1 = 0.1278	1.986 ± 0.092
x1 = 0.2286	3.022 ± 0.14
x1 = 0.3182	4.286 ± 0.19
x1 = 0.4677	6.968 ± 0.28
x1 = 0.5096	7.792 ± 0.31
x1 = 0.5879	9.486 ± 0.37
x1 = 0.6584	11.01 ± 0.42
x1 = 0.7068	12.08 ± 0.46
x1 = 0.7594	13.3 ± 0.5
x1 = 0.814	14.5 ± 0.54
x1 = 0.8783	16.08 ± 0.59
x1 = 0.9378	17.59 ± 0.65

CCCCC(CC)COP(=O)(O)OCC(CC)CCCC (centres undefined) + CCCCCCCCO
viscosity [mPa·s], [1], 101 kPa
Settings	303.15 K	313.15 K	323.15 K
x1 = 0.0433	6.599 ± 0.27	4.84 ± 0.2	3.531 ± 0.14
x1 = 0.0469	6.819 ± 0.15	–	–
x1 = 0.073	6.889 ± 0.15	–	–
x1 = 0.0919	7.065 ± 0.28	5.143 ± 0.21	3.719 ± 0.15
x1 = 0.1008	7.185 ± 0.16	–	–
x1 = 0.1474	7.624 ± 0.31	5.504 ± 0.22	3.942 ± 0.16
x1 = 0.1532	7.958 ± 0.17	–	–
x1 = 0.2125	8.316 ± 0.34	5.948 ± 0.24	4.214 ± 0.17
x1 = 0.276	9.907 ± 0.21	–	–
x1 = 0.288	9.17 ± 0.37	6.493 ± 0.26	4.545 ± 0.18
x1 = 0.3227	10.59 ± 0.23	–	–
x1 = 0.377	10.25 ± 0.41	7.177 ± 0.29	4.957 ± 0.2
x1 = 0.4481	12.38 ± 0.27	–	–
x1 = 0.4848	11.66 ± 0.47	8.068 ± 0.33	5.489 ± 0.22
x1 = 0.5519	13.89 ± 0.31	–	–
x1 = 0.6176	13.58 ± 0.55	9.263 ± 0.37	6.195 ± 0.25
x1 = 0.6183	14.78 ± 0.33	–	–
x1 = 0.7209	16.04 ± 0.36	–	–
x1 = 0.7843	16.27 ± 0.65	10.92 ± 0.44	7.162 ± 0.29
x1 = 0.8137	17.09 ± 0.39	–	–
x1 = 0.922	18.4 ± 0.42	–	–

N + CO
viscosity [mPa·s], [1], 100 kPa
Settings	303 K	313 K
x1 = 0.16	0.48 ± 0.02	0.4 ± 0.02
x1 = 0.23	0.48 ± 0.02	0.39 ± 0.02

CCCCCCCCCCCCN + c1ccccc1
[1], 303.15 K, 101 kPa
Settings	viscosity [mPa·s]
x2 = 0.2072	2.122 ± 0.023
x2 = 0.4348	1.563 ± 0.017
x2 = 0.5228	1.375 ± 0.015
x2 = 0.6046	1.189 ± 0.013
x2 = 0.7998	0.8357 ± 0.0093

Cc1cccc(O)c1 + C[N+](C)(C)CCO.[Cl-]
[1], 298.15 K, 101.33 kPa
Settings	viscosity
x1 = 0.7	138.1 ± 51 mPa·s
x1 = 0.8	74.18 ± 22 mPa·s and 56.16 ± 14 mPa·s and 49.24 ± 11 mPa·s
x1 = 0.9	39.12 ± 8.4 mPa·s

O=Cc1ccco1
100 kPa
Settings	viscosity [mPa·s]
293.15 K	1.62 ± 0.65
298.15 K	1.48 ± 0.59
303.15 K	1.36 ± 0.54
308.15 K	1.26 ± 0.5
313.15 K	1.17 ± 0.47
318.15 K	1.09 ± 0.44
323.15 K	1.02 ± 0.41

C[N+](=O)[O-] + CC#N
[1], 101 kPa
Settings	viscosity [mPa·s]
298.15 K, x1 = 0.107	0.3665 ± 0.0092
298.15 K, x1 = 0.206	0.389 ± 0.0098
298.15 K, x1 = 0.301	0.4121 ± 0.01
298.15 K, x1 = 0.398	0.4366 ± 0.011
298.15 K, x1 = 0.502	0.4646 ± 0.012
298.15 K, x1 = 0.598	0.4917 ± 0.012
298.15 K, x1 = 0.7	0.5223 ± 0.013
298.15 K, x1 = 0.792	0.5508 ± 0.014
298.15 K, x1 = 0.895	0.5844 ± 0.015
298.15 K, x2 = 0.1433	0.569 ± 0.006
298.15 K, x2 = 0.3891	0.495 ± 0.006
298.15 K, x2 = 0.39	0.496 ± 0.005
298.15 K, x2 = 0.403	0.492 ± 0.005
298.15 K, x2 = 0.408	0.49 ± 0.005
298.15 K, x2 = 0.598	0.439 ± 0.005
298.15 K, x2 = 0.698	0.413 ± 0.005
298.15 K, x2 = 0.729	0.405 ± 0.004
298.15 K, x2 = 0.739	0.403 ± 0.004
298.15 K, x2 = 0.776	0.395 ± 0.005
298.15 K, x2 = 0.9346	0.359 ± 0.005
308.15 K, x2 = 0.1433	0.52 ± 0.006
308.15 K, x2 = 0.3891	0.454 ± 0.005
308.15 K, x2 = 0.598	0.404 ± 0.005
308.15 K, x2 = 0.776	0.364 ± 0.005
308.15 K, x2 = 0.9346	0.333 ± 0.005
313.15 K, x1 = 0.107	0.3169 ± 0.0079
313.15 K, x1 = 0.206	0.3355 ± 0.0084
313.15 K, x1 = 0.301	0.3546 ± 0.0089
313.15 K, x1 = 0.398	0.3751 ± 0.0094
313.15 K, x1 = 0.502	0.3985 ± 0.01
313.15 K, x1 = 0.598	0.4211 ± 0.011
313.15 K, x1 = 0.7	0.4465 ± 0.011
313.15 K, x1 = 0.792	0.4697 ± 0.012
313.15 K, x1 = 0.895	0.4974 ± 0.012
318.15 K, x2 = 0.1433	0.469 ± 0.005
318.15 K, x2 = 0.3891	0.411 ± 0.005
318.15 K, x2 = 0.598	0.367 ± 0.005
318.15 K, x2 = 0.776	0.333 ± 0.005
318.15 K, x2 = 0.9346	0.305 ± 0.004
